This is an account of results in PMC4946967 (ACS chemical biology, 2016).

Numbering of substitutions follows the chain as printed. “And” between values parts separate entries of the source, which are not always exact repeats. Equal entries are not always repeated. “Also recorded” adds a separate entry of the source. Where two headings read alike, the source gives them in different places. A value given as a limit tells only on which side of the number the result lay.

The target in series [1] is T1, wt-mouse-(m)RNR-α (Mus musculus, UniProt P07742).
T1 sequence (P07742 1-792): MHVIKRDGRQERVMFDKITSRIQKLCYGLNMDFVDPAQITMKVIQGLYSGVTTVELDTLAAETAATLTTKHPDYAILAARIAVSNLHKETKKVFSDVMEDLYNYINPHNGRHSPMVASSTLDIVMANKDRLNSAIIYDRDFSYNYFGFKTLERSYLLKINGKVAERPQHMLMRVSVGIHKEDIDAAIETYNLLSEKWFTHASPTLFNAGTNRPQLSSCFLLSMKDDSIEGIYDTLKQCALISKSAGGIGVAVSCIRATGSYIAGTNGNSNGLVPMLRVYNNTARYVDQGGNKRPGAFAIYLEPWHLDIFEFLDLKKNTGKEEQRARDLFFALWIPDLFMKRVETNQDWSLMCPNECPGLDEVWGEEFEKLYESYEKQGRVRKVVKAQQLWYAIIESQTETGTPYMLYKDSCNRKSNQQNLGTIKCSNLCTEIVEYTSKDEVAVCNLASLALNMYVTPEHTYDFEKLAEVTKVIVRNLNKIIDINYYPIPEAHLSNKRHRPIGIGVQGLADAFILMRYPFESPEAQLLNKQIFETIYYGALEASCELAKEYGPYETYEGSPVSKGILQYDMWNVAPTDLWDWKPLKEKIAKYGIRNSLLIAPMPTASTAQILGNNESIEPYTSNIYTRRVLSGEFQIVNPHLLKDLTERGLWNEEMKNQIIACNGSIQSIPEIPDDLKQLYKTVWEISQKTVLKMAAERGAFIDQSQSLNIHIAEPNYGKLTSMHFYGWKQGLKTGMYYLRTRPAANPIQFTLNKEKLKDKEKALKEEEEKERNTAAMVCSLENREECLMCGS
The format is cell-based. The note with it: 3 h treatment; 5, 50, 300 μM ClF, ClA, FlUMP; wt-mRNR-α 3T3 cells.

Series [2] concerns the target T2, mutant (D57N)-mouse(m)RNR-α (Mus musculus, UniProt P07742, D57N).
T2 sequence (P07742 1-792 D57N): T1 sequence (P07742 1-792) with D57N
Type of series: cell-based. As to conditions: 3 h treatment; 5, 50, 300 μM ClF, ClA, FlUMP; D57N-mRNR-α 3T3 cells.

For series [3], the system named is Flp-In 293 T-REx cells expressing RNR-α-Flag. Briefly: Proliferation inhibition assay.
The test system of series [4] is Flp-In 293 T-REx cells expressing D57N-α-Flag. Briefly: Proliferation inhibition assay.
Series [5] deals with T3, RNR-α (Homo sapiens, UniProt P23921).
T3 sequence (P23921 1-792): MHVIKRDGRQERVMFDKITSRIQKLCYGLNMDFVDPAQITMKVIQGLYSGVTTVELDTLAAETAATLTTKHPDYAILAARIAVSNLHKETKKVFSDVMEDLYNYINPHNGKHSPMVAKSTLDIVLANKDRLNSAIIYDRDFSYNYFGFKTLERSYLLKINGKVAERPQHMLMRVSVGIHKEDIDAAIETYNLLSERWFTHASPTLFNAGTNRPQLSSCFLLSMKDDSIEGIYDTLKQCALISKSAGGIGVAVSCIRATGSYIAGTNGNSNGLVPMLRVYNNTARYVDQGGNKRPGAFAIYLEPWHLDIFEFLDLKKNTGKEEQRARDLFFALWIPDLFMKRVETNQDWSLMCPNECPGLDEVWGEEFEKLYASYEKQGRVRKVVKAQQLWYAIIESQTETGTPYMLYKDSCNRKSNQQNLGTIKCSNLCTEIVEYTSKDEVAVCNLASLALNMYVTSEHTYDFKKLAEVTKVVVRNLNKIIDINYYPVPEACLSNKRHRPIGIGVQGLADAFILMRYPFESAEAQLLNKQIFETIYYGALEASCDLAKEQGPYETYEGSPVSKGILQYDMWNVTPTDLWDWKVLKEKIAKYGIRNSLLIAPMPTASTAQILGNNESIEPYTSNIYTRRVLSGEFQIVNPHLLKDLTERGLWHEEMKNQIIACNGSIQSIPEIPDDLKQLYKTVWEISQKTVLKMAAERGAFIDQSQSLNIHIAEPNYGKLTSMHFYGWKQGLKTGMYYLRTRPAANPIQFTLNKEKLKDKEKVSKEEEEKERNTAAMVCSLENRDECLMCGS
Briefly: Gel filtration analysis of RNR-α oligomeric state. As to conditions: for oligomeric state by gel filtration of α presaturated with dATP (S and A sites): running buffer without nucleotides. On the technique in general: In gel filtration, larger molecules generally elute earlier.

Series [6] has as its target T4, D57N-human RNR-α mutant (Homo sapiens, UniProt P23921, D57N).
T4 sequence (P23921 1-792 D57N): T3 sequence (P23921 1-792) with D57N
Briefly: Inhibition of D57N RNR-α reductase activity. The format is biochemical. The note with it: up to at least 10-fold above the Ki for wt.

For series [7], the target named is T3, RNR-α. Briefly: FRET-quenching assay reporting ligand-driven RNR-α oligomerization.
Series [8] deals with T5, wild type RNR-α (Homo sapiens, UniProt P23921).
T5 sequence (P23921 1-792): T3 sequence (P23921 1-792)
Nature of the series: Fluorescence anisotropy displacement of Texas Red-5-dATP from wild type RNR-α. As to conditions: for further decrease in FA after S site preblocked with saturating dTTP: RNR-α, T*-dATP, saturating ligand then added. On the technique in general: Fluorescence polarisation rises when a labelled molecule tumbles more slowly, as on binding a larger partner.

In series [9] the target is T6, D57N RNR-α (Homo sapiens, UniProt P23921, D57N).
T6 sequence (P23921 1-792 D57N): T3 sequence (P23921 1-792) with D57N
Briefly: Fluorescence anisotropy displacement of Texas Red-5-dATP from D57N RNR-α. The format is binding. The note with it: D57N RNR-α 6 μM, T*-dATP 1.2 μM.

Series [10] has as its system E. coli RNR. The note with it: cited from earlier work.
Series [11] addresses T4, D57N-human RNR-α mutant. The note with it: CDP as substrate; cited from earlier work.

`Nc1nc(Cl)nc2c1ncn2[C@H]1C[C@H](O)[C@@H](CO)O1` [ClA, cladribine]: the “RNR inhibition in cells (rate of [5-3H]-dCDP formation in lysate)” value in series [1] is recorded as “potent RNR inhibition”. Moreover, in series [2], the “RNR reductase activity in D57N-α-expressing lines after drug treatment” value (from here on “RNR reductase activity”) is “not suppressed”. Further, the “effect of RNR-α overexpression on cytotoxicity relative to noninduced cells” value in series [3] is reported as “small effect on the EC50”. In addition, the “protection against cytotoxicity upon tet induction relative to noninduced” value in [4] is > 20 fold.

Regarding `Nc1nc(Cl)nc2c1ncn2[C@H]1C[C@H](O)[C@@H](COP(=O)(O)OP(=O)(O)O)O1` [ClADP], the “oligomeric state by gel filtration of α presaturated with dATP (S and A sites)” value in series [5] was “hexameric peak was observed”. Further, the “inhibition of D57N-α” value in series [6] is “did not inhibit; also recorded: failed to inhibit; also recorded: neither of the diphosphates inhibited”. Also, the “time to complete oligomerization (time-dependent FRET)” value (shortened to “time to complete oligomerization”) in series [7] was “less than 5 min”. Further, in series [8], the “further decrease in FA after S site preblocked with saturating dTTP” value is on record as “no statistically significant changes”.

For the molecule `Nc1nc(Cl)nc2c1ncn2[C@H]1C[C@H](O)[C@@H](COP(=O)(O)OP(=O)(O)OP(=O)(O)O)O1` [ClATP], the “inhibition of D57N-α” value in series [6] is listed as “unresponsive; also recorded: failed to inhibit”. Besides, the “decrease in FA relative to dTTP/dGTP (fold less)” value in [9] is listed as ~ 7 fold. Moreover, the “further decrease in FA after S site preblocked with saturating dTTP” value in [8] is 20 ± 1% and ~ 20%. Moreover, in series [8] (ligand added in place of dTTP/dGTP), the “drop in FA on wild type protein compared with D57N” value is recorded as “significantly higher drop in FA”.

As for `Nc1nc(Cl)nc2c1ncn2[C@@H]1O[C@H](COP(=O)(O)OP(=O)(O)OP(=O)(O)O)[C@@H](O)[C@@H]1F` [ClFTP], the “inhibition of E. coli RNR” value in [10] is “failed to inhibit”.

On to `Nc1ccn([C@@H]2O[C@H](CO)[C@@H](O)C2(F)F)c(=O)n1` [F2C, gemcitabine], for which, in [2], the “RNR reductase activity” value is reported as “sensitive”.

Consider `Nc1ccn([C@@H]2O[C@H](COP(=O)(O)OP(=O)(O)O)[C@@H](O)C2(F)F)c(=O)n1` [F2CDP, gemcitabine diphosphate], for which the “inhibition of D57N-α” value in series [6] was “inhibits D57N-α as effectively as the wild type; also recorded: promoted inactivation of D57N-α as well as wt-α”.

Take `Nc1nc(F)nc2c1ncn2[C@@H]1O[C@H](COP(=O)(O)OP(=O)(O)O)[C@@H](O)[C@@H]1O` [FlUDP]: the “oligomeric state of eluted α by gel filtration” value in series [5] (20 μM FlUDP included in running buffer) is recorded as “exclusively α6”. Moreover, the “inhibition of D57N-α” value in series [6] is given as “did not inhibit; also recorded: neither of the diphosphates inhibited”. Moreover, the “time to complete oligomerization” value in series [7] is listed as “less than 5 min”.

As for `Nc1nc(F)nc2c1ncn2[C@@H]1O[C@H](COP(=O)(O)O)[C@@H](O)[C@@H]1O` [FlUMP], the “RNR inhibition in cells (rate of [5-3H]-dCDP formation in lysate)” value in [1] is “potent RNR inhibition”. Besides, in series [2], the “RNR reductase activity” value is on record as “not suppressed”. Further, in series [3] (48 h drug), the “effect of RNR-α overexpression on cytotoxicity relative to noninduced cells” value is recorded as “no protection”. For the same molecule, the “effect of D57N-α overexpression on cytotoxicity relative to noninduced cells” value in [4] (48 h drug) is recorded as “no protection”.

On to `Nc1nc(F)nc2c1ncn2[C@@H]1O[C@H](COP(=O)(O)OP(=O)(O)OP(=O)(O)O)[C@@H](O)[C@@H]1O` [FlUTP], for which, in [6], the “inhibition of D57N-α” value is “unresponsive; also recorded: failed to inhibit”. Besides, in [7], the “time to complete oligomerization” value is listed as “less than 5 min”.

With `Nc1ncnc2c1ncn2[C@H]1C[C@H](O)[C@@H](COP(=O)(O)OP(=O)(O)OP(=O)(O)O)O1` [dATP], the “oligomeric state by gel filtration of α presaturated with dATP (S and A sites)” value in [5] is listed as “only elutes as lower-order species”. In addition, the “reduced affinity at the A site of D57N relative to wt” value in [11] is recorded as ~ 300 fold.

For `Cc1cn([C@H]2C[C@H](O)[C@@H](COP(=O)(O)OP(=O)(O)OP(=O)(O)O)O2)c(=O)[nH]c1=O` [dTTP], in [9], the “drop in FA” value came out at 39 ± 1%. In addition, the “drop in FA on addition of S-site binder” value in series [8] (RNR-α 6 μM, T*-dATP 1.2 μM, saturating ligand) was 49 ± 1% and ~ 50%.
